Results: patent US20130040331A1, “LABEL-FREE METHODS RELATED TO hERG POTASSIUM ION [sequence]” (CORNING INCORPORATED, priority 2009, published 2013)

Tests used:
HEK-hERG cells = assay: Label-free RWG biosensor (Epic) DMR assay, agonism mode, HEK-hERG cells stably expressing hERG; assay type: cell-based, human
Description: (§1) Epic® wavelength interrogation system (Corning Inc., Corning, N.Y.) was used for whole cell sensing. This system consists of a temperature-control unit, an optical detection unit, and an on-board liquid handling unit with robotics. The detection unit is centered on integrated fiber optics, and enables kinetic measures of cellular responses with a time interval of ˜15 sec.
(§2) Cells were plated in 384-well Epic® cell culture treated plate (Corning Cat#5040) 16-20 hours before assay (15000 cells/well for HEK293 and HEK-hERG cells, 30000 cells/well for HT29 cells). For both HEK-hERG and its parental HEK293 cells, each well was coated with 10 μl 5 μg/ml fibronectin. One hour before assay, cells were washed twice on a BioTek ELx405 Select washer with Hank's Balanced Salt Solution (HBSS) containing 20 mM Hepes. Cells were incubated in 40 μl/well HBSS at 28° C. inside the Epic system for one hour. For each assay, a 2-min baseline was initiated, followed by addition of 10 μl compound solutions (5×) and the cell responses were recorded continuously for one hour.
(§3) All studies were carried out at a controlled temperature (28° C.). At least two independent sets of experiments, each with at least three replicates, were performed. […] All dose-dependent responses were analyzed using non-linear regression method with the GraphPad Prism 5.
(§4) Three different types of cells: human colon cancerous cell line HT-29, HEK293 and its engineered HEK-hERG cell lines were used. HT-29 is known to endogenously express hERG channels. HEK293 is a native cell line without endogenously expressed hERG channels, while HEK-hERG is an engineered HEK293 cells having stably expressed hERG channels. Mallotoxin, a newly discovered hERG activator, was used to activate hERG channels at or near physiological conditions (i.e., 1×HBSS buffered conditions).

HT29 cells = assay: Label-free RWG biosensor (Epic) DMR assay, agonism mode, HT29 cells endogenously expressing hERG; assay type: cell-based, human
Description: as §1, §2, §3, §4

[1] = system: hERG channel or hERG-associated signaling complex; assay: Classification of hERG modulators by label-free biosensor profiles across three cell lines plus mallotoxin modulation index; assay type: cell-based, human
From the text: The traditional hERG ion channel assay involves assaying ion flux such as Rb^+ flux using ion absorption assays, or assaying hERG currents directly using patch clamping methods. Traditionally, a molecule which causes increase in Rb^+ flux and/or hERG currents is referred to a hERG activator, while a molecule which inhibits Rb^+ flux and/or hERG currents is referred to a hERG inhibitor. […] These hERG activators may or may not result in detectable biosensor signals in cells, using label-free biosensor cellular assays. A hERG activator that results in a detectable biosensor signal in a hERG expressing cell via hERG or hERG signaling complex is also referred to a label-free biosensor hERG activator.
Disclosed are methods of classifying a molecule for modulating hERG activity, comprising the steps: a. incubating a molecule individually with at least three different types of cells consisting of a native cell endogenously expressing hERG, an engineered cell stably expressing hERG and its parental cell without expressing hERG, and b. monitoring the molecule induced cellular response on each cell type with a label-free biosensor cellular assay,
Also disclosed are methods, further comprising as steps c) incubating a label-free biosensor hERG activator with each cell type in the presence of the molecule, d. monitoring the label-free biosensor hERG activator induced cellular response on each cell type in the presence of the molecule, e. generating a biosensor modulation index of the molecule against the label-free biosensor hERG activator induced biosensor signals in the two hERG expressing cell types.
(§5) The DMR modulation index was generated by normalizing the mallotoxin DMR signal in either cell line in the presence of compound […] to its corresponding DMR signal in the absence of the compound, and the percentage of modulation was based on the amplitude of the mallotoxin DMR signal at a specific time (−18 min after stimulation for HEK-hERG cells, and ˜50 min after stimulation for HT29 cells, respectively). Mallotoxin is known to display polypharmacology. It is also known to be a protein kinase C (PKC) inhibitor; and PKC is a downstream signaling component of hERG activation. Thus, it would be difficult or almost impossible to assign the mode(s) of action of mallotoxin to be a hERG activator when either cell line is individually assayed with the label-free biosensor (i.e., Epic® system). […] However, combining the primary DMR profiles of a compound across the three cell lines tested with the modulation index of the compound against the mallotoxin responses in both HT29 and […] cells can correctly identify whether the compound is a hERG activator or not. The results shown in FIG. 1 indicate that indeed mallotoxin is a hERG activator; and the activation of hERG can result in detectable biosensor responses in the two hERG expressing cell lines.

[2] = system: mallotoxin DMR signal in HT29 cells; assay: DMR modulation index against the mallotoxin DMR signal in HT29 cells; assay type: cell-based, human
From the text: (§6) A “molecule modulation index” or like terms is an index to display the ability of the molecule to modulate the biosensor output signals of the panels of markers acting on the panel of cells. The modulation index is generated by normalizing a specific biosensor output signal parameter of a response of a cell upon stimulation with a marker in the presence of a molecule against that in the absence of any molecule.
as §1, §2, §3, §5

hERG channel = hERG channel (Homo sapiens, UniProt Q12809); assay: Rb+ flux assay using HEK-hERG cells; conditions: for effect on hERG ion flux (Rb+ flux, FIG. 6): HEK-hERG cells, overall statement, KCl and concentration not specified
hERG channel, sequence (Q12809 whole entry): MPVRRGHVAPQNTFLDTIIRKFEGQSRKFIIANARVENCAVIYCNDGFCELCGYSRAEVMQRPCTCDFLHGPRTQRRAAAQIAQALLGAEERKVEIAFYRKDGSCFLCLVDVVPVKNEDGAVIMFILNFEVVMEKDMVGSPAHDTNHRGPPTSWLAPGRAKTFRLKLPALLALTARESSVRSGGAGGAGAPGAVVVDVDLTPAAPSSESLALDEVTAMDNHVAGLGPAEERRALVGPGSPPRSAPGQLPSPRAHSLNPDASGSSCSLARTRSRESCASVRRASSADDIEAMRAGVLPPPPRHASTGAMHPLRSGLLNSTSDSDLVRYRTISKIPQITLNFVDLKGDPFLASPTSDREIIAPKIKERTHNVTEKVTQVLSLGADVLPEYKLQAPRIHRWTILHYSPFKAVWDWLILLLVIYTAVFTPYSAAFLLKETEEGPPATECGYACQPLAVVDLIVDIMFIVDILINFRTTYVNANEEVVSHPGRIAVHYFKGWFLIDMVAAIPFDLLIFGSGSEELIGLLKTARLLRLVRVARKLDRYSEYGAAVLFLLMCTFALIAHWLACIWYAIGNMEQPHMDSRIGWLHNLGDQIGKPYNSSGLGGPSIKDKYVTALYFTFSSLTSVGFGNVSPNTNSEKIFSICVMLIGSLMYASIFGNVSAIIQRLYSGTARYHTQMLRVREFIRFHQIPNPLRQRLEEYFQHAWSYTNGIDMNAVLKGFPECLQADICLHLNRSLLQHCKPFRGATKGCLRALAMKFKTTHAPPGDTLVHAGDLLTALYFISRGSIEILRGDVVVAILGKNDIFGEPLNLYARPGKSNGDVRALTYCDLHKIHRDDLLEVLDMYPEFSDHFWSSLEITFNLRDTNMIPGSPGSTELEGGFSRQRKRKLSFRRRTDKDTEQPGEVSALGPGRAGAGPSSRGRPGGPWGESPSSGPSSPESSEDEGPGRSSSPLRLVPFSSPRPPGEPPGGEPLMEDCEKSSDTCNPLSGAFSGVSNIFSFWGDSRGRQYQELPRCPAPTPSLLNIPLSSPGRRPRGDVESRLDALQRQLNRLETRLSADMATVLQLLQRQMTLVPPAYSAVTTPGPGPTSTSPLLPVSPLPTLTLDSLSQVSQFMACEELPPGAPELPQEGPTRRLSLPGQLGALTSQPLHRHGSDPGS
Description: Briefly, 50,000 cells per well were plated in 96-well tissue culture treated plates 20 hours before assay. In the next day, cells were incubated with complete cell culture medium containing 5 mM RbCl for 3 hours at 37° C. with 5% CO2. Then compounds (10×) diluted in HBSS were added into the cell culture medium and cells were incubated at 37° C. with 5% CO2 for another hour. Cells were washed twice with Rb^+ free cell culture medium and incubated with 180 μl/well of cell culture medium containing different concentration of KCl for exactly 10 minutes. The supernatant from each well was transferred to a new 96 well plate immediately. Cells were lysed with 180 μl/well 0.5% Triton-100 in HBSS. The Rb^+ concentration of each sample was determined by ICR8000 (Aurora Biomed Inc.).

[3] = system: mallotoxin DMR signal in HEK-hERG cells; assay type: cell-based, human
From the text: as §6, §1, §2, §3, §5

[4] = 5 mM KCl, compound at 10 or 50 μM
[5] = pretreatment with 16 micromolar compound, then 16 micromolar mallotoxin

SMILES | DMR signal in HEK-hERG cells (HEK-hERG cells; compound at 10 μM) | DMR signal in HT29 cells (HT29 cells; compound at 10 μM) | hERG pathway activity class by label-free biosensor [1] | modulation index against mallotoxin in HT29 cells ([2]; compound 10 micromolar, mallotoxin 16 micromolar, amplitude ~50 min after stimulation) [%] | modulation of the mallotoxin DMR signal in HT29 cells ([2]; compound at 10 micromolar, mallotoxin 16 micromolar) | Rb+ signal in HEK-hERG cells (hERG channel; [4]) | effect on hERG ion flux (Rb+ flux, FIG. 6) (hERG channel) | score of modulation index in coordination, HEK-hERG coordinate ([3]; 10% modulation = 1 score unit) | modulation index against mallotoxin in HEK-hERG cells ([3]; compound 10 micromolar, mallotoxin 16 micromolar, amplitude 18 min after stimulation) | EC50 (HEK-hERG cells; amplitudes at 18 min after stimulation, read-out: apparent EC50 of dose-dependent DMR signal in HEK-hERG cells) [µM] | DMR signal in HEK-hERG cells (HEK-hERG cells; compound at 16 micromolar) | DMR signal in HT29 cells (HT29 cells; compound at 16 micromolar) | modulation of the mallotoxin DMR signal in HT29 cells [2, 5] | Rb+ signal in HEK-hERG cells (hERG channel; 40 mM KCl, compound at 10 μM) | modulation of the mallotoxin DMR signal in HEK-hERG cells [3, 5]
O=C(O)c1ccccc1Nc1cccc(C(F)(F)F)c1 [flufenamic acid] | robust DMR signals | robust DMR signals | hERG pathway activator | −90 | selectively attenuated | small and dose-dependent increase | weak hERG ion flux activator | 1 | ~+12% |  |  |  |  |  | 
CC(=O)c1c(O)c(C)c(O)c(Cc2c(O)c3c(c(C(=O)/C=C/c4ccccc4)c2O)OC(C)(C)C=C3)c1O [mallotoxin] |  |  | label-free hERG pathway activator |  |  | significant increase | strong hERG ion flux activator |  |  | ~25 | robust DMR signal | robust DMR signal | completely caused the desensitization | obvious increase | completely caused the desensitization
